Legend:
[1] = target: Alpha-1 adrenergic receptor (Bos taurus); test: Binding affinity against alpha-1 adrenergic receptor from calf cerebral cortex, using [3H]prazosin as the radioligand
[2] = target: Alpha-1 adrenergic receptor (Bos taurus); test: as above; remark: listed apart in the source

Ki [1]	Ki [2]	SMILES
0.38 µM	–	Oc1cccc(NCC2=NCCN2)c1 [3-[(4,5-Dihydro-1H-imidazol-2-ylmethyl)-amino]-phenol]
–	0.3 µM	CCN(CC1=NCCN1)c1ccc(C)cc1 [(4,5-Dihydro-1H-imidazol-2-ylmethyl)-ethyl-p-tolyl-amine]
0.15 µM	–	Cc1ccc(N(C)CC2=NCCN2)cc1 [(4,5-Dihydro-1H-imidazol-2-ylmethyl)-methyl-p-tolyl-amine]
–	0.23 µM	Cc1ccc(NCC2=NCCN2)cc1 [(4,5-Dihydro-1H-imidazol-2-ylmethyl)-p-tolyl-amine]
–	0.424 µM	Cc1ccc(N(CC2=NCCN2)C2CCCCC2)cc1 [Cyclohexyl-(4,5-dihydro-1H-imidazol-2-ylmethyl)-p-tolyl-amine]

From BindingDB's records for doi:10.1021/jm00366a022 (1984)
